Data as given in patent publication US10723727B2, “Tubulysin analogs and methods for their preparation” (priority 2016, dated 2020).

molecular target: T1, tubulin/RB3-stathmin-like-domain (RB3-SLD-tdm) complex (Sus scrofa, UniProt P02550+P02554); experiment: Tubulin Peptide-Binding Site Competition Assay (fluorescence polarization); parameters: species or system Porcine; conditions: FP competition with BODIPY-labeled vinca peptide probe; read after five hours at 22° C.; read-out: Tubulin Peptide-Binding Site Competition Assay IC50
T1 construct: purchased Cytoskeleton, Inc. T240; host or cells: RB3-SLD was made in house in E. coli
Experimental: Tubulin Peptide-Binding Site Competition Assay
Tubulin binding potency was measured for payloads or cysteine-capped linker-payloads using a fluorescence polarization (FP) competition assay. The binding of a BODIPY-labeled vinca peptide probe (# B31) to a tubulin/RB3-stathmin-like-domain (RB3-SLD-tdm) complex generates a high FP signal, which can be decreased when mixing with test compounds that compete with the FP probe. The order of addition for the reagents in the FP assay was designed to pre-mix the FP probe with various concentrations of the test compound before mixing them with the tubulin/RB3-SLD-dm complex. The final assay concentrations of the probe, tubulin and RB3-SLD-dm were 3, 6, and 100 nM, respectively. IC50 for each test compound is obtained by fitting the dose-dependent FP signal change using GraphPad Prism version 5 software (La Jolla, Calif.) while Ki is converted from the IC50 using the equations described previously (Nikolovska-Coleska et al., 2004). The FP signals were measured on an Infinite M1000 (Tecan, San Jose, Calif.) using ProxiPlate-384 F Plus, Black (Perkin-Elmer, Waltham, Mass., Cat #6008260) with 15 μL of solution per well. Sample dilution and mixing were done using a Beckman Biomek XF (Brea, Calif.). Porcine tubulin was purchased from Cytoskeleton, Inc. (Denver, Colo., Cat #T240) and RB3-SLD was expressed in E. coli. and purified on Q and then Superdex75 columns. The FP assay test for each compound was run in duplicates by mixing 6 μL of solution 1 containing 2.5× test compound (2.5× serial dilution from 7.8 μM maximum concentration, 11 total concentrations) and 7.5 nM of the FP probe in 80 mM PIPES, pH 7.0, 0.02% Tween 20, 2 mM MgCl2, 1 mM EGTA and 3% DMSO with 9 μL of solution 2 containing […] porcine tubulin and 167 nM of RB3-SLD-dm peptide ([…]-[…]) on ProxiPlate-384 micro-plates.

SMILES	IC50
CC[C@H](C)[C@H](NC(=O)[C@@]1(C)CCCN1C)C(=O)N(C)[C@H](C[C@@H](OC(C)=O)c1nc(C(=O)NC(Cc2ccccc2)c2ccc(N(C)C)cc2)cs1)C(C)C (stereo partly drawn) [#B66, 1,2-dimethyl-D-prolyl-N-{(1R,3R)-1-(acetyloxy)-1-[4-({1-[4-(dimethylamino)phenyl]-2-phenylethyl}carbamoyl)-1,3-thiazol-2-yl]-4-methylpentan-3-yl}-N-methyl-L-isoleucinamide]	52.2 nM
CC[C@H](C)[C@H](NC(=O)[C@@]1(C)CCCN1C)C(=O)N(C)[C@H](C[C@@H](OC(C)=O)c1nc(C(=O)NCCN2CCOCC2)cs1)C(C)C [#B46, 1,2-dimethyl-D-prolyl-N-[(1R,3R)-1-(acetyloxy)-4-methyl-1-(4-{[2-(morpholin-4-yl)ethyl]carbamoyl}-1,3-thiazol-2-yl)pentan-3-yl]-N-isomethyl-L-leucinamide]	282 nM
CC[C@H](C)[C@H](NC(=O)[C@@]1(C)CCCN1C)C(=O)N(C)[C@H](C[C@@H](OC(C)=O)c1nc(C(=O)NCCc2cncnc2)cs1)C(C)C [#B71, 1,2-dimethyl-D-prolyl-N-[(1R,3R)-1-(acetyloxy)-4-methyl-1-(4-{[2-(pyrimidin-5-yl)ethyl]carbamoyl}-1,3-thiazol-2-yl)pentan-3-yl]-N-methyl-L-isoleucinamide]	85.1 nM
CC[C@H](C)[C@H](NC(=O)[C@@]1(C)CCCN1C)C(=O)N(C)[C@H](C[C@@H](OC(C)=O)c1nc(C(=O)NC2(Cc3ccccc3)CCCCC2)cs1)C(C)C [#B47, 1,2-dimethyl-D-prolyl-N-[(1R,3R)-1-(acetyloxy)-1-{4-[(1-benzylcyclohexyl)carbamoyl]-1,3-thiazol-2-yl}-4-methylpentan-3-yl]-N-methyl-L-isoleucinamide]	202 nM
CC[C@H](C)[C@H](NC(=O)[C@@]1(C)CCCN1C)C(=O)N(C)[C@H](C[C@@H](OC(C)=O)c1nc(C(=O)NCCc2c[nH]c3ccccc23)cs1)C(C)C [#B59, 1,2-dimethyl-D-prolyl-N-[(1R,3R)-1-(acetyloxy)-1-(4-{[2-(1H-indol-3-yl)ethyl]carbamoyl}-1,3-thiazol-2-yl)-4-methylpentan-3-yl]-N-methyl-L-isoleucinamide]	64.6 nM
CCOC(=O)c1ncoc1[C@H](Cc1ccccc1)NC(=O)c1csc([C@@H](C[C@H](C(C)C)N(C)C(=O)[C@@H](NC(=O)[C@@]2(C)CCCN2C)[C@@H](C)CC)OC(C)=O)n1 [#B75, 1,2-dimethyl-D-prolyl-N-{(1R,3R)-1-(acetyloxy)-1-[4-({(1S)-1-[4-(ethoxycarbonyl)-1,3-oxazol-5-yl]-2-phenylethyl}carbamoyl)-1,3-thiazol-2-yl]-4-methylpentan-3-yl}-N-methyl-L-isoleucinamide]	25.8 nM
CC[C@H](C)[C@H](NC(=O)[C@@]1(C)CCCN1C)C(=O)N(C)[C@H](C[C@@H](OC(C)=O)c1nc(C(=O)NCCNC(=O)c2ccccc2)cs1)C(C)C [#B60, 1,2-dimethyl-D-prolyl-N-[(1R,3R)-1-(acetyloxy)-1-(4-{[2-(benzoylamino)ethyl]carbamoyl}-1,3-thiazol-2-yl)-4-methylpentan-3-yl]-N-methyl-L-isoleucinamide]	108 nM
CC[C@H](C)[C@H](NC(=O)[C@@]1(C)CCCN1C)C(=O)N(C)[C@H](C[C@@H](OC(C)=O)c1nc(C(=O)N[C@@H](Cc2ccccc2)CN2CCOCC2)cs1)C(C)C [#B72, 1,2-dimethyl-D-prolyl-N-[(1R,3R)-1-(acetyloxy)-4-methyl-1-(4-{[(2S)-1-(morpholin-4-yl)-3-phenylpropan-2-yl]carbamoyl}-1,3-thiazol-2-yl)pentan-3-yl]-N-methyl-L-isoleucinamide]	32.9 nM
CC[C@H](C)[C@H](NC(=O)[C@@]1(C)CCCN1C)C(=O)N(C)[C@H](C[C@@H](OC(C)=O)c1nc(C(=O)NCCc2cnccn2)cs1)C(C)C [#B68, 1,2-dimethyl-D-prolyl-N-{(1R,3R)-1-(acetyloxy)-4-methyl-1-(4-{[2-(pyrazin-2-yl)ethyl]carbamoyl}-1,3-thiazol-2-yl)pentan-3-yl]-N-methyl-L-isoleucinamide]	84.7 nM
CC[C@H](C)[C@H](NC(=O)[C@@]1(C)CCCN1C)C(=O)N(C)[C@H](C[C@@H](OC(C)=O)c1nc(C(=O)NCCC2CCCCC2)cs1)C(C)C [#B49, 1,2-dimethyl-D-prolyl-N-[(1R,3R)-1-(acetyloxy)-1-{4-[(2-cyclohexylethyl)carbamoyl]-1,3-thiazol-2-yl}-4-methylpentan-3-yl]-N-methyl-L-isoleucinamide]	127 nM
CC[C@H](C)[C@H](NC(=O)C(C)(C)N(C)C)C(=O)N(C)[C@H](C[C@@H](OC(C)=O)c1nc(C(=O)N[C@@H](Cc2ccccc2)C[C@H](C)C(=O)OC)cs1)C(C)C [#B34, N,N,-2-trimethylalanyl-N-[(1R,3R)-1-(acetyloxy)-1-(4-{[(2R,4S)-5-methoxy-4-methyl-5-oxo-1-phenylpentan-2-yl]carbamoyl}-1,3-thiazol-2-yl)-4-methylpentan-3-yl]-N-methyl-L-isoleucinamide]	24.8 nM
CC[C@H](C)[C@H](NC(=O)[C@@]1(C)CCCN1C)C(=O)N(C)[C@H](C[C@@H](OC(C)=O)c1nc(C(=O)NC2(Cc3ccccc3)CC2)cs1)C(C)C [#B55]	28.4 nM
CC[C@H](C)[C@H](NC(=O)[C@@]1(C)CCCN1C)C(=O)N(C)[C@H](C[C@@H](OC(C)=O)c1nc(C(=O)NCCc2cccc3ccccc23)cs1)C(C)C [#B70, 1,2-dimethyl-D-prolyl-N-[(1R,3R)-1-(acetyloxy)-4-methyl-1-(4-{[2-(naphthalen-1-yl)ethyl]carbamoyl}-1,3-thiazol-2-yl)pentan-3-yl]-N-methyl-L-isoleucinamide]	56.3 nM
CC[C@H](C)[C@H](NC(=O)[C@@]1(C)CCCN1C)C(=O)N(C)[C@H](C[C@@H](OC(C)=O)c1nc(C(=O)NC2(c3ccccc3)CC2)cs1)C(C)C [#B52, 1,2-dimethyl-D-prolyl-N-[(1R,3R)-1-(acetyloxy)-4-methyl-1-{4-[(1-phenylcyclopropyl)carbamoyl]-1,3-thiazol-2-yl}pentan-3-yl]-N-methyl-L-isoleucinamide]	61.8 nM
CC[C@H](C)[C@H](NC(=O)[C@@]1(C)CCCN1C)C(=O)N(C)[C@H](C[C@@H](OC(C)=O)c1nc(C(=O)NCCCN2CCCC2=O)cs1)C(C)C [#B43, 1,2-dimethyl-D-prolyl-N-[(1R,3R)-1-(acetyloxy)-4-methyl-1-(4-{[3-(2-oxopyrrolidin-1-yl)propyl]carbamoyl}-1,3-thiazol-2-yl)pentan-3-yl]-N-methyl-L-isoleucinamide]	51.8 nM
CC[C@H](C)[C@H](NC(=O)C(C)(C)N)C(=O)N(C)[C@H](C[C@@H](OC(C)=O)c1nc(C(=O)N[C@@H](Cc2ccccc2)C[C@H](C)C(=O)OC)cs1)C(C)C [#B35, 2-methylalanyl-N-[(1R,3R)-1-(acetyloxy)-1-(4-{[(2R,4S)-5-methoxy-4-methyl-5-oxo-1-phenylpentan-2-yl]carbamoyl}-1,3-thiazol-2-yl)-4-methylpentan-3-yl]-N-methyl-L-isoleucinamide]	96.8 nM
CC[C@H](C)[C@H](NC(=O)[C@@]1(C)CCCN1C)C(=O)N(C)[C@H](C[C@@H](OC(C)=O)c1nc(C(=O)NC(c2ccccc2)c2ccccc2)cs1)C(C)C [#B67, 1,2-dimethyl-D-prolyl-N-[(1R,3R)-1-(acetyloxy)-1-{4-[(diphenylmethyl)carbamoyl]-1,3-thiazol-2-yl}-4-methylpentan-3-yl]-N-methyl-L-isoleucinamide]	348 nM
CC[C@H](C)[C@H](NC(=O)[C@@]1(C)CCCN1C)C(=O)N(C)[C@H](C[C@@H](OC(C)=O)c1nc(C(=O)NCCc2c[nH]cn2)cs1)C(C)C [#B54, 1,2-dimethyl-D-prolyl-N-[(1R,3R)-1-(acetyloxy)-1-(4-{[2-(1H-imidazol-4-yl)ethyl]carbamoyl}-1,3-thiazol-2-yl)-4-methylpentan-3-yl]-N-methyl-L-isoleucinamide]	60.6 nM
CC[C@H](C)[C@H](NC(=O)[C@@]1(C)CCCN1C)C(=O)N(C)[C@H](C[C@@H](OC(C)=O)c1nc(C(=O)NC2(c3ccccn3)CC2)cs1)C(C)C [#B63]	105 nM
CC[C@H](C)[C@H](NC(=O)[C@@]1(C)CCCN1C)C(=O)N(C)[C@H](C[C@@H](OC(C)=O)c1nc(C(=O)NCCn2cccn2)cs1)C(C)C [#B56, 1,2-dimethyl-D-prolyl-N-[(1R,3R)-1-(acetyloxy)-4-methyl-1-(4-{[2-(1H-pyrazol-1-yl)ethyl]carbamoyl}-1,3-thiazol-2-yl)pentan-3-yl]-N-methyl-L-isoleucinamide]	33.6 nM
CC[C@H](C)[C@H](NC(=O)[C@@]1(C)CCCN1C)C(=O)N(C)[C@H](C[C@@H](OC(C)=O)c1nc(C(=O)NCCn2ccnc2)cs1)C(C)C [#B48, 1,2-dimethyl-D-prolyl-N-[(1R,3R)-1-(acetyloxy)-1-{4-{[2-(1H-imidazol-1-yl)ethyl]carbamoyl}-1,3-thiazol-2-yl)-4-methylpentan-3-yl]-N-methyl-L-isoleucinamide]	110 nM
